Reference: patent US20230399312A1, “SUBSTITUTED PYRIMIDINES AND METHODS OF USE” (THERAVANCE BIOPHARMA R&D IP, LLC, priority 2020, published 2023)
pKi: −log10 of the molar value.

What was measured:
[1] = biological target: T1, recombinant human ALK5 (TGF-βR1) protein (Homo sapiens, UniProt P36897); experiment: Biochemical ALK5 (TGF-βR1) assay to measure pKi (LANCE Ultra ULight kinase assay); conditions: apparent pKi, converted from pIC50 by Cheng-Prusoff
T1 construct: purchased Life Technologies PR9075A
T1 sequence (P36897 34-503): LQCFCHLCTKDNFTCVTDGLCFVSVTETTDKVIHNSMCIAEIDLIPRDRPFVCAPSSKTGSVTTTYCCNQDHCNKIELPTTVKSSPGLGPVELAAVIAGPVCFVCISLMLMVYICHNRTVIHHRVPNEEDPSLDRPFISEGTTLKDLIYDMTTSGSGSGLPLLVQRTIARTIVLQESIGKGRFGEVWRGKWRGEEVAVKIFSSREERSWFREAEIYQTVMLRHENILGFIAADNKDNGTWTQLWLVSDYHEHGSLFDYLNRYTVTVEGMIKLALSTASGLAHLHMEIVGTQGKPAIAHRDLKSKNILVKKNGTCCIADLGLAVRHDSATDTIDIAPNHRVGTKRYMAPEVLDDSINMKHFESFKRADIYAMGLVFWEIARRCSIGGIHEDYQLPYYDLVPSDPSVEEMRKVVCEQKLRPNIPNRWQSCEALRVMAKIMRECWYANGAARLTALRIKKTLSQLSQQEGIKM
Summary of the method: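 Read-out was LANCE Ultra TR-FRET with a europium anti-phospho-Topo IIα Thr1342 antibody after EDTA quench. Kinase reaction ran 60 min at 37 °C with ATP added from a 125 μM 5× stock, after 60 min compound–enzyme equilibration at room temperature. Values are pKi from Cheng-Prusoff conversion of fitted pIC50.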

[2] = tested on: TGF-β-stimulated SMAD3 phosphorylation in BEAS-2B cells; experiment: Cellular ALK5 potency assay, inhibition of TGF-β stimulated pSMAD3 formation in BEAS-2B cells; format: cell-based; conditions: Homo sapiens, pSMAD3, TGF-β 10 ng/mL, read-out: BEAS2B pIC50 (converted)
Summary of the method: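 Cells were seeded overnight, rinsed into HEPES/BSA-supplemented HBSS, and dosed with serially diluted compound for 1 h at 37 °C, 5% CO2. TGF-β stimulation (10 ng/mL final) followed for 30 min, then lysis and AlphaLISA pSMAD3 measurement; potency reported as pIC50.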

| SMILES | pKi [1] | IC50 [2] [nM] |
| --- | --- | --- |
| Fc1ccc(-c2nccc(Nc3ccnc(Nc4ccc(N5CCOCC5)cc4)n3)n2)nc1C(F)F [Compound 426, N4-(2-(6-(difluoromethyl)-5-fluoropyridin-2-yl)pyrimidin-4-yl)-N2-(4-morpholinophenyl)pyrimidine-2,4-diamine] | 7.50 to 8.40 | 25.1 to 158 |
| Cc1cccc(-c2nccc(Nc3ccnc(Nc4cc(C(=O)O)cs4)n3)n2)n1 [Compound 532, 5-[[4-[[2-(6-methyl-2-pyridyl)pyrimidin-4-yl]amino]pyrimidin-2-yl]amino]thiophene-3-carboxylic acid] | 8.50 to 9.40 | 200 to 1260 |
| COCCn1cc(-c2ccc(Nc3nccc(Nc4ccnc(-c5cccc(C)n5)n4)n3)cc2)cn1 [Compound 169, N2-[4-[1-(2-methoxyethyl)pyrazol-4-yl]phenyl]-N4-[2-(6-methyl-2-pyridyl)pyrimidin-4-yl]pyrimidine-2,4-diamine] | 8.50 to 9.40 | 25.1 to 158 |
| Cc1cccc(-c2nccc(Nc3ccnc(Nc4ccc(N5CCNCC5)c(CC(=O)O[C@@H]5CCN(C)C5)c4)n3)n2)n1 [Compound 499, [(3R)-1-methylpyrrolidin-3-yl] 2-[5-[[4-[[2-(6-methyl-2-pyridyl)pyrimidin-4-yl]amino]pyrimidin-2-yl]amino]-2-piperazin-1-yl-phenyl]acetate] | 9.50 to 10.40 | 200 to 1260 |
| Cc1cccc(-c2nccc(Nc3ccnc(Nc4ccc(C(=O)O[C@H]5CCCNC5)nc4)n3)n2)n1 [Compound 617, [(3S)-3-piperidyl] 5-[[4-[[2-(6-methyl-2-pyridyl)pyrimidin-4-yl]amino]pyrimidin-2-yl]amino]pyridine-2-carboxylate] | 9.50 to 10.40 | 25.1 to 158 |
| Cc1cccc(-c2nccc(Nc3ccnc(Nc4ccc(N5CCNCC5)c(F)c4)n3)n2)n1 [Compound 120, N2-(3-fluoro-4-piperazin-1-yl-phenyl)-N4-[2-(6-methyl-2-pyridyl)pyrimidin-4-yl]pyrimidine-2,4-diamine] | 9.50 to 10.40 | 25.1 to 158 |
| Cc1cccc(-c2nccc(Nc3ccnc(Nc4csc(C(=O)OC[C@H]5CC[C@@H](N)CC5)c4)n3)n2)n1 [Compound 563, (4-aminocyclohexyl)methyl 4-[[4-[[2-(6-methyl-2-pyridyl)pyrimidin-4-yl]amino]pyrimidin-2-yl]amino]thiophene-2-carboxylate] | 9.50 to 10.40 | 200 to 1260 |
| Cc1cccc(-c2nccc(Nc3ccnc(Nc4ccc(C(=O)N5CCNCC5)s4)n3)n2)n1 [Compound 115, [5-[[4-[[2-(6-methyl-2-pyridyl)pyrimidin-4-yl]amino]pyrimidin-2-yl]amino]-2-thienyl]-piperazin-1-yl-methanone] | 9.50 to 10.40 | 25.1 to 158 |
| COc1ccc(Nc2nccc(Nc3ccnc(-c4cccc(C)n4)n3)n2)cc1NC(=O)C1CCNCC1 [Compound 6, N-[2-methoxy-5-[[4-[[2-(6-methyl-2-pyridyl)pyrimidin-4-yl]amino]pyrimidin-2-yl]amino]phenyl]piperidine-4-carboxamide] | 9.50 to 10.40 | 25.1 to 158 |
| Cc1cccc(-c2nccc(Nc3ccnc(Nc4csc(C(=O)OCCN5CC[C@@H](N)C5)c4)n3)n2)n1 [Compound 568, 2-[(3R)-3-aminopyrrolidin-1-yl]ethyl 4-[[4-[[2-(6-methyl-2-pyridyl)pyrimidin-4-yl]amino]pyrimidin-2-yl]amino]thiophene-2-carboxylate] | 9.50 to 10.40 | 25.1 to 158 |
| Cc1cccc(-c2nccc(Nc3ccnc(Nc4ncc(C(=O)OCC5CNC5)s4)n3)n2)n1 [Compound 338, azetidin-3-ylmethyl 2-((4-((2-(6-methylpyridin-2-yl)pyrimidin-4-yl)amino)pyrimidin-2-yl)amino)thiazole-5-carboxylate] | 7.50 to 8.40 | 200 to 1260 |
| Cc1cccc(-c2nccc(Nc3ccnc(Nc4ccc(CN5[C@H](C)CNC[C@@H]5C)cc4)n3)n2)n1 [Compound 470, N2-[4-[[(2R,6S)-2,6-dimethylpiperazin-1-yl]methyl]phenyl]-N4-[2-(6-methyl-2-pyridyl)pyrimidin-4-yl]pyrimidine-2,4-diamine] | 9.50 to 10.40 | 25.1 to 158 |
| Cc1cccc(-c2nc(Nc3ccnc(Nc4ccc(N5CCOCC5)cc4)n3)ccc2C#N)n1 [Compound 1003, 2-(6-methyl-2-pyridyl)-6-[[2-(4-morpholinoanilino)pyrimidin-4-yl]amino]pyridine-3-carbonitrile] | 7.50 to 8.40 | 200 to 1260 |
| Cc1nc(-c2nccc(Nc3ccnc(Nc4ccc(N5CCOCC5)cc4)n3)n2)ccc1F [Compound 354, N4-[2-(5-fluoro-6-methyl-2-pyridyl)pyrimidin-4-yl]-N2-(4-morpholinophenyl)pyrimidine-2,4-diamine] | 8.50 to 9.40 | 25.1 to 158 |
| Cc1cccc(-c2nccc(Nc3ccnc(Nc4cccc(S(=O)(=O)N(C)C5CCNCC5)c4)n3)n2)n1 [Compound 87, N-methyl-3-[[4-[[2-(6-methyl-2-pyridyl)pyrimidin-4-yl]amino]pyrimidin-2-yl]amino]-N-(4-piperidyl)benzenesulfonamide] | 7.50 to 8.40 | 200 to 1260 |
| Cc1cccc(-c2nccc(Nc3ccnc(Nc4ccc(CN5CC(C(=O)O[C@H]6CCN(C)C6)C5)cc4)n3)n2)n1 [Compound 97, [(3S)-1-methylpyrrolidin-3-yl] 1-[[4-[[4-[[2-(6-methyl-2-pyridyl)pyrimidin-4-yl]amino]pyrimidin-2-yl]amino]phenyl]methyl] azetidine-3-carboxylate] | 9.50 to 10.40 | 25.1 to 158 |
| Cc1cccc(-c2nccc(Nc3ccnc(Nc4ccc5c(c4)CN(C(C)C)CC5)n3)n2)n1 [Compound 198, N2-(2-isopropyl-3,4-dihydro-1H-isoquinolin-7-yl)-N4-[2-(6-methyl-2-pyridyl)pyrimidin-4-yl]pyrimidine-2,4-diamine] | 9.50 to 10.40 | 25.1 to 158 |
| Cc1cccc(-c2nccc(Nc3ccnc(Nc4ccc(N)c(C)c4)n3)n2)n1 [Compound 514, N2-(4-amino-3-methyl-phenyl)-N4-[2-(6-methyl-2-pyridyl)pyrimidin-4-yl]pyrimidine-2,4-diamine] | 8.50 to 9.40 | ≤ 20 |

Continued, in another order:

| pKi [1] | SMILES | IC50 [2] [nM] |
| --- | --- | --- |
| 9.50 to 10.40 | Cc1cccc(-c2nccc(Nc3ccnc(Nc4cnn(CCN5CCOCC5)c4)n3)n2)n1 [Compound 84, N4-(2-(6-methylpyridin-2-yl)pyrimidin-4-yl)-N2-(1-(2-morpholinoethyl)-1H-pyrazol-4-yl)pyrimidine-2,4-diamine] | 25.1 to 158 |
| 9.50 to 10.40 | Cc1cccc(-c2nccc(Nc3ccnc(Nc4ccc(C(=O)OCCN5CCNCC5)nc4)n3)n2)n1 [Compound 552, 2-piperazin-1-ylethyl 5-[[4-[[2-(6-methyl-2-pyridyl)pyrimidin-4-yl]amino]pyrimidin-2-yl]amino]pyridine-2-carboxylate] | 25.1 to 158 |
| 9.50 to 10.40 | Cc1cccc(-c2nc(Nc3ccnc(Nc4ccc(C(=O)NC5CCNCC5)cc4)n3)c3cccn3n2)n1 [Compound 1037, 4-[[4-[[2-(6-methyl-2-pyridyl)pyrrolo[2,1-f][1,2,4]triazin-4-yl]amino]pyrimidin-2-yl]amino]-N-(4-piperidyl)benzamide] | 25.1 to 158 |
| 9.50 to 10.40 | Cc1cccc(-c2nccc(Nc3ccnc(Nc4csc(C(=O)O[C@H]5CC[C@](C)(N)CC5)c4)n3)n2)n1 [Compound 572, (4-amino-4-methyl-cyclohexyl) 4-[[4-[[2-(6-methyl-2-pyridyl)pyrimidin-4-yl]amino]pyrimidin-2-yl]amino]thiophene-2-carboxylate] | 25.1 to 158 |
| 9.50 to 10.40 | Cc1cccc(-c2nccc(Nc3ccnc(Nc4ccc(NC(=O)N5CCN(C)CC5)cc4)n3)n2)n1 [Compound 330, 4-methyl-N-[4-[[4-[[2-(6-methyl-2-pyridyl)pyrimidin-4-yl]amino]pyrimidin-2-yl]amino]phenyl]piperazine-1-carboxamide] | 25.1 to 158 |
| 9.50 to 10.40 | Cc1cccc(-c2nccc(Nc3ccnc(Nc4ccc(N[C@H]5CCNC5)cc4)n3)n2)n1 [Compound 1, N4-[2-(6-methyl-2-pyridyl)pyrimidin-4-yl]-N2-[4-[[(3S)-pyrrolidin-3-yl]amino]phenyl]pyrimidine-2,4-diamine] | 25.1 to 158 |
| ≥ 10.50 | CNCc1ccc(Nc2nccc(Nc3ccnc(-c4cccc(C)n4)n3)n2)cc1 [Compound 503, N2-[4-(methylaminomethyl)phenyl]-N4-[2-(6-methyl-2-pyridyl)pyrimidin-4-yl]pyrimidine-2,4-diamine] | 25.1 to 158 |
| ≥ 10.50 | Cc1cccc(-c2nccc(Nc3ccnc(Nc4ccc(CN(C)C)cc4)n3)n2)n1 [Compound 24, N2-[4-[(dimethylamino)methyl]phenyl]-N4-[2-(6-methyl-2-pyridyl)pyrimidin-4-yl]pyrimidine-2,4-diamine] | 25.1 to 158 |
